The results in this text go back to ChEMBL document CHEMBL3351804, “Development of 2-aryl substituted quinazolin-4(3H)-one, pyrido[4,3-d]pyrimidin-4(3H)-one and pyrido[2,3-d]pyrimidin-4(3H)-one derivatives as microsomal prostaglandin E(2) synthase-1 inhibitors” (Bioorg Med Chem Lett, 2014).

Data set [1] can be described thus: Stability in guinea pig liver microsomes assessed as compound remaining after 60 mins. In kind it is ADME, Cavia porcellus. The note with it: read-out: Stability.
The target of data set [2] is T1, Prostacyclin synthase (Homo sapiens) (UniProt Q16647).
T1 sequence (whole entry): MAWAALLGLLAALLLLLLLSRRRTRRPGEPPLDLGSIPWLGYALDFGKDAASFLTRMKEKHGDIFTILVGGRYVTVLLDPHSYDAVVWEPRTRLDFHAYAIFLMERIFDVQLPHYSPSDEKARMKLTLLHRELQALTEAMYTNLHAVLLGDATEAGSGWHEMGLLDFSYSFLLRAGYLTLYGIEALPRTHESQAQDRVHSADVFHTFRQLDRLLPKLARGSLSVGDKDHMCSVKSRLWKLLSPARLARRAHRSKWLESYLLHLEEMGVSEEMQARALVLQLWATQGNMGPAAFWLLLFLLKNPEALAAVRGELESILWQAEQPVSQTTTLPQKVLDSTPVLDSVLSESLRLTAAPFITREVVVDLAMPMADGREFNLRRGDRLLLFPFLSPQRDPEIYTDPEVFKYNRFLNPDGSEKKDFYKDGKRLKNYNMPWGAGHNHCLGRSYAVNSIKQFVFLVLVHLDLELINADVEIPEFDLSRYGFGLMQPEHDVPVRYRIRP
As to the kind of experiment: Inhibition of recombinant PGIS (unknown origin) at 10 uM.

The nature of data set [3]: Inhibition of mPGES-1 in guinea pig whole blood assessed as inhibition of LPS-induced PGE2 production after overnight incubation. In kind it is tissue-based. The note with it: Cavia porcellus.
The nature of data set [4]: Stability in human liver microsomes assessed as compound remaining after 60 mins. In kind it is ADME. The note with it: read-out: Stability. Background: Liver microsomes are vesicles of endoplasmic reticulum, rich in cytochrome P450 enzymes.
Data set [5] has as its target T2, Prostaglandin E synthase (Canis lupus familiaris, UniProt A0SYQ0).
T2 sequence (A0SYQ0 whole entry): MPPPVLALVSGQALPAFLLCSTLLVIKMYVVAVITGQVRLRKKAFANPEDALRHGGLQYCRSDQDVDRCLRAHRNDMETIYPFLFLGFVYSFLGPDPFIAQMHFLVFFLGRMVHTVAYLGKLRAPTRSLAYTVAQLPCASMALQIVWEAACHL
Nature of the data set: Inhibition of mPGES-1 in dog whole blood assessed as inhibition of LPS-induced PGE2 production after overnight incubation.

Usually inhibition stands for the change of the read-out against control, counted positive when it falls. In general, IC50 refers to the concentration that inhibits the measured activity by half. With `CC(C)C(=O)NCc1ccc(Cl)c(-c2nc3cc(-c4ccc(C(F)(F)F)cc4)ncc3c(=O)[nH]2)c1`, the remaining at 1 h in data set [1] came out at 87%; in data set [4], 91%. Besides, in data set [2], the inhibition is 0.67%. The IC50 in data set [3] worked out at 161 nM; in data set [5], 154 nM.
